From PMC9064041 (Journal of medicinal chemistry, 2020)
Converted amounts (≈) assume the structure as drawn.

Tested on: C. difficile ATCC BAA 1801
Assay: MIC, broth microdilution, initial screening
Format: cell-based, Clostridioides difficile
Conditions: for MIC: C. difficile ATCC BAA 1801, anaerobic, 48 hours
[1] = Clostridioides difficile, BAA1801, 48 h

Structure (SMILES)	MIC [1]	MIC	activity against C. difficile ATCC BAA 1801 in words
COc1cccc(-c2nnc(NC(=O)c3ccc(SC(F)(F)F)cc3)o2)c1 [compound 6, N-(5-(3-Methoxyphenyl)-1,3,4-oxadiazol-2-yl)-4-((trifluoromethyl)thio)benzamide]	4 µg/mL (≈ 10.1 µM)	–	only moderate to no actvity
O=C(Nc1nnc(-c2ccc(F)cc2)o1)c1ccc(SC(F)(F)F)cc1 [compound 8, N-(5-(4-Fluorophenyl)-1,3,4-oxadiazol-2-yl)-4-((trifluoromethyl)thio)benzamide]	4 µg/mL (≈ 10.4 µM)	–	–
COc1ccc(-c2nnc(NC(=O)c3ccc(SC(F)(F)F)cc3)o2)cc1 [compound 11, N-(5-(4-Methoxyphenyl)-1,3,4-oxadiazol-2-yl)-4-((trifluoromethyl)thio)benzamide]	4 µg/mL (≈ 10.1 µM)	–	only moderate to no actvity
CC(C)c1ccc(-c2nnc(NC(=O)c3ccc(SC(F)(F)F)cc3)o2)cc1 [compound 13, N-(5-(4-Isopropylphenyl)-1,3,4-oxadiazol-2-yl)-4-((trifluoromethyl)thio)benzamide]	128 µg/mL (≈ 314 µM)	–	only moderate to no actvity
COc1ccc(Cl)cc1-c1nnc(NC(=O)c2ccc(SC(F)(F)F)cc2)o1 [compound 16, N-(5-(5-Chloro-2-methoxyphenyl)-1,3,4-oxadiazol-2-yl)-4-((trifluoromethyl)thio)benzamide]	2 µg/mL (≈ 4.65 µM)	–	–
O=C(Nc1nnc(-c2ccccn2)o1)c1ccc(SC(F)(F)F)cc1 [compound 17, N-(5-(Pyridin-2-yl)-1,3,4-oxadiazol-2-yl)-4-((trifluoromethyl)thio)benzamide]	8 µg/mL (≈ 21.8 µM)	–	only moderate activity

Continued, in another order:

MIC [1]	MIC	Structure (SMILES)	activity against C. difficile ATCC BAA 1801 in words
0.03 µg/mL (≈ 0.0783 µM)	–	O=C(Nc1nnc(-c2cccc(F)c2)o1)c1ccc(SC(F)(F)F)cc1 [compound 4, N-(5-(3-Fluorophenyl)-1,3,4-oxadiazol-2-yl)-4-((trifluoromethyl)thio)benzamide]	–
0.03 µg/mL (≈ 0.075 µM)	–	O=C(Nc1nnc(-c2cccc(Cl)c2)o1)c1ccc(SC(F)(F)F)cc1 [compound 5, N-(5-(3-Chlorophenyl)-1,3,4-oxadiazol-2-yl)-4-((trifluoromethyl)thio)benzamide]	–
0.015 µg/mL (≈ 0.0346 µM)	–	O=C(Nc1nnc(-c2cccc(C(F)(F)F)c2)o1)c1ccc(SC(F)(F)F)cc1 [compound 7, N-(5-(3-Trifluoromethylphenyl)-1,3,4-oxadiazol-2-yl)-4-((trifluoromethyl)thio)benzamide]	–
2 µg/mL (≈ 5 µM)	–	O=C(Nc1nnc(-c2ccc(Cl)cc2)o1)c1ccc(SC(F)(F)F)cc1 [compound 9, N-(5-(4-Chlorophenyl)-1,3,4-oxadiazol-2-yl)-4-((trifluoromethyl)thio)benzamide]	–
0.125 µg/mL (≈ 0.288 µM)	–	O=C(Nc1nnc(-c2ccc(C(F)(F)F)cc2)o1)c1ccc(SC(F)(F)F)cc1 [compound 10, N-(5-(4-Trifluoromethylphenyl)-1,3,4-oxadiazol-2-yl)-4-((trifluoromethyl)thio)benzamide]	–
0.06 µg/mL (≈ 0.138 µM)	0.03 µg/mL (≈ 0.0691 µM)	O=C(Nc1nnc(-c2ccc(Cl)cc2Cl)o1)c1ccc(SC(F)(F)F)cc1 [compound 14, N-(5-(2,4-Dichlorophenyl)-1,3,4-oxadiazol-2-yl)-4-((trifluoromethyl)thio)benzamide]	–
